According to patent US6004957A, “Sulfonamide inhibitors of aspartyl protease” (Vertex Pharmaceuticals, Incorporated, priority 1998, dated 1999):

These compounds were tested on HIVIIIb in CCRM-CEM cells (assay: Anti-viral potency in CCRM-CEM cells acutely infected with HIVIIIb (method of Meek et al.), extracellular p24 antigen). Conditions: Human immunodeficiency virus 1, HIV replication, Table VIII, read-out: IC90 Range.
Format: cell-based, HIV-1
Text: As discussed above, the novel compounds of the present invention are excellent ligands for aspartyl proteases, particularly HIV-1 and HIV-2 proteases. Accordingly, these compounds are capable of targeting and inhibiting late stage events in HIV replication, i.e., the processing of the viral polyproteins by HIV encoded proteases. […] Because aspartyl protease is essential for the production of mature virions, inhibition of that processing effectively blocks the spread of virus by inhibiting the production of infectious virions, particularly from chronically infected cells. […] Other anti-viral assays have confirmed the potency of these compounds.
Compounds of formula I were tested for their antiviral potency in several virological assays. In the first assay, the compounds were added as a solution in dimethylsulfoxide (DMSO) to a test cell culture of CCRM-CEM cells, a strain of CD4^+ human T-cell lymphoma cells, previously acutely infected with HIVIIIb using standard protocols (see Meek, T. D. et al., "Inhibition of HIV-1 protease in infected T-lymphocytes by synthetic peptide analogues", Nature, 343, p. 90 (1990). Preferred compounds are those which are able to inhibit 90% of viral infectivity at a concentration of 1 μM or less. More preferred compounds are those which are able to inhibit 90% of viral infectivity at a concentration of 100 nM or less.
The effect of the compounds on inhibiting the replication of the virus was measured by determining the HIV extracellular p24 antigen concentration using a commercial enzyme immunoassay (obtained from Coulter Corporation, Hialeah, Fla.).
Work on `CC(C)CN(C[C@@H](O)[C@H](Cc1ccccc1)NC(=O)O[C@H]1CCOC1)S(=O)(=O)c1cccc(S(N)(=O)=O)c1` [Compound 112, Benzene-1,3-disulfonic acid 1-amide 3-((2 syn,3S)-2-hydroxy-4-phenyl-3-(3-(S)-tetrahydrofuran-3-yloxycarbonylamino)-butyl)-isobutyl-amide] yielded an IC90 of 0.101 to 1 µM.
For `CC(=O)Nc1nc(C)c(S(=O)(=O)N(CC(C)C)C[C@@H](O)[C@H](Cc2ccccc2)NC(=O)[C@H](CC(N)=O)NC(=O)c2ccc3ccccc3n2)s1` [Compound 18], the IC90 was 0.101 to 1 µM.
`CC(C)CN(C[C@@H](O)[C@H](Cc1ccccc1)NC(=O)OCC1CCOC1)S(=O)(=O)c1ccc(Cl)c(Cl)c1` (stereo partly drawn) [Compound 85] was tested, and the IC90 was 1 to 10 µM.
Work on `NC(=O)C[C@H](NC(=O)c1ccc2ccccc2n1)C(=O)N[C@@H](Cc1ccccc1)[C@H](O)CN(Cc1ccccc1)S(=O)(=O)c1ccccc1` [Compound 1] yielded an IC90 of 1 to 10 µM.
For `CC(C)CN(C[C@@H](O)[C@H](Cc1ccccc1)NC(=O)O[C@H]1CCOC1)S(=O)(=O)c1ccc(-c2ccon2)s1` [Compound 145, 5-Isoxazol-3-yl-thiophene-2-sulfonic acid ((2 syn,3S)-2-hydroxy-4-phenyl-3-((S)-tetrahydrofuran-3-yloxycarbonylamino)-butyl)-isobutyl-amide], the IC90 was 0.101 to 1 µM.
With `CCCOC(=O)N[C@@H](Cc1ccccc1)[C@H](O)CN(CC(C)C)S(=O)(=O)c1ccc(Cl)c(Cl)c1` [Compound 89] the IC90 was 1 to 10 µM.
For `CCOC(=O)N[C@@H](Cc1ccccc1)[C@H](O)CN(CC(C)C)S(=O)(=O)c1ccc(F)cc1` [Compound 121], the IC90 was 1 to 10 µM.
`CC(C)CN(C[C@@H](O)[C@H](Cc1ccccc1)NC(=O)O[C@H]1CCOC1)S(=O)(=O)c1cc(Cl)c(Cl)s1` [Compound 95] gave an IC90 of 1 to 10 µM.
Work on `C=CCOC(=O)N[C@@H](Cc1ccccc1)[C@H](O)CN(CC1CCCC1)S(=O)(=O)c1ccc(F)cc1` [Compound 114, N-((3-Allyloxycarbonylamino)-(2 syn,3S)-2-hydroxy-4-phenyl-butyl)-N-cyclopentylmethyl-4-fluoro-benzenesulfonamide] yielded an IC90 of 0.101 to 1 µM.
`CC(C)CN(C[C@@H](O)[C@H](Cc1ccccc1)NC(=O)O[C@H]1CCOC1)S(=O)(=O)c1ccc2nonc2c1` [Compound 66] was tested, and the IC90 was 0.101 to 1 µM.
In the case of `NC(=O)C[C@H](NC(=O)c1ccc2ccccc2n1)C(=O)N[C@@H](Cc1ccccc1)[C@H](O)CN(Cc1ccccc1)S(=O)(=O)c1cccc(C(F)(F)F)c1` [Compound 4], the IC90 was 1 to 10 µM.
For `O=C(N[C@@H](Cc1ccccc1)[C@H](O)CN(CC1CCCC1)S(=O)(=O)c1ccc(F)cc1)OCc1cccnc1` [Compound 111], the IC90 was 1 to 10 µM.
For `CC(=O)Nc1ccc(S(=O)(=O)N(CC2CCCC2)C[C@@H](O)[C@H](Cc2ccccc2)NC(=O)O[C@H]2CCOC2)cc1` [Compound 125, N-(4-(Cyclopentylmethyl-((2 syn,3S)-2-hydroxy-4-phenyl-3-((S)-tetrahydrofuran-3-yloxycarbonylamino)-butyl)-sulfamoyl)-phenyl)-acetamide], the IC90 was 0.101 to 1 µM.
`CC(C)CN(C[C@@H](O)[C@H](Cc1ccccc1)NC(=O)[C@H](CC(N)=O)NC(=O)c1ccc2ccccc2n1)S(=O)(=O)c1cccc2nonc12` [Compound 20, (S)-N-1-(3-((Benzo(1,2,5)oxadiazole-4-sulfonyl)-isobutyl-amino)-(1S,2 syn)-1-benzyl-2-hydroxy-propyl)-2-((quinoline-2-carbonyl)-amino)-succinamide] showed an IC90 of under 0.1 µM.
With `Cc1noc(C)c1S(=O)(=O)N(Cc1ccccc1)C[C@@H](O)[C@H](Cc1ccccc1)NC(=O)[C@H](CC(N)=O)NC(=O)c1ccc2ccccc2n1` [Compound 3] the IC90 was 1 to 10 µM.
`C=CCOC(=O)N[C@@H](Cc1ccccc1)[C@H](O)CN(CC1CCCC1)S(=O)(=O)c1ccc(Cl)cc1` [Compound 117] showed an IC90 of 1 to 10 µM.
For `CC(=O)Nc1cccc(S(=O)(=O)N(CC(C)C)C[C@@H](O)[C@H](Cc2ccccc2)NC(=O)O[C@H]2CCOC2)c1` [Compound 91, N-(3-(((2 syn,3S)-2-Hydroxy-4-phenyl-3-((S)-tetrahydrofuran-3-yloxycarbonylamino)-butyl)-isobutyl-sulfamoyl)-phenyl)-acetamide], the IC90 was 0.101 to 1 µM.
Work on `C=C(COC)COC(=O)N[C@@H](Cc1ccccc1)[C@H](O)CN(CC(C)C)S(=O)(=O)c1ccc(NC(C)=O)cc1` [Compound 155, N-4-((2-(syn)-Hydroxy-3-((2-methoxymethyl-allyloxycarbonylamino)-4-(S)-phenyl-butyl)-isobutyl-sulfamoyl)-phenyl)-acetamide] yielded an IC90 of 0.101 to 1 µM.
`C=C(C)COC(=O)N[C@@H](Cc1ccccc1)[C@H](O)CN(CC(C)C)S(=O)(=O)c1ccc(Cl)c(Cl)c1` [Compound 106] gave an IC90 of 1 to 10 µM.
Work on `O=C(N[C@@H](Cc1ccccc1)[C@H](O)CN(CC1CCCC1)S(=O)(=O)c1ccc(Cl)cc1)OCc1cccnc1` [Compound 118] yielded an IC90 of 0.101 to 1 µM.
`CC(C)CN(C[C@@H](O)[C@H](Cc1ccccc1)NC(=O)O[C@H]1CCOC1)S(=O)(=O)c1ccc(Cl)cc1` [Compound 99, 4-Chloro-N-((2 syn,3S)-2-hydroxy-4-phenyl-3-((S)-tetrahydrofuran-3-yloxycarbonylamino)-butyl)-isobutyl-benzenesulfonamide] was tested, and the IC90 was 0.101 to 1 µM.
`C=CCOC(=O)N[C@@H](Cc1ccccc1)[C@H](O)CN(CC(C)C)S(=O)(=O)c1ccc(NC(C)=O)cc1` [Compound 27] showed an IC90 of 1 to 10 µM.
In the case of `CC(=O)Nc1nc(C)c(S(=O)(=O)N(Cc2ccccc2)C[C@@H](O)[C@H](Cc2ccccc2)NC(=O)[C@H](CC(N)=O)NC(=O)c2ccc3ccccc3n2)s1` [Compound 5], the IC90 was 0.101 to 1 µM.
`CCOC(=O)N[C@@H](Cc1ccccc1)[C@H](O)CN(CC1CCCC1)S(=O)(=O)c1ccc(F)cc1` [Compound 115, N-Cyclopentylmethyl-N-((3-ethoxycarbonylamino)-(2 syn,3S)-2-hydroxy-4-phenyl-butyl)-4-fluoro-benzenesulfonamide] showed an IC90 of 0.101 to 1 µM.
With `CC(C)CN(C[C@@H](O)[C@H](Cc1ccccc1)NC(=O)O[C@@H]1CCOC1)S(=O)(=O)c1ccc(F)cc1` [Compound 93, 4-Fluoro-N-((2 syn,3S)-2-hydroxy-4-phenyl-3-((R)-tetrahydrofuran-3-yloxycarbonylamino)-butyl)-N-isobutyl-benzenesulfonamide] the IC90 was 0.101 to 1 µM.
With `COc1ccc(S(=O)(=O)N(CC2CCCC2)C[C@@H](O)[C@H](Cc2ccccc2)NC(=O)O[C@H]2CCOC2)cc1` [Compound 140, N-cyclopentylmethyl-N-((2 syn,3S)-2-hydroxy-4-phenyl-3-((S)-tetrahydrofuran-3-yloxycarbonylamino)-butyl)-4-methoxy-benzenesulfonamide] the IC90 was under 0.1 µM.
In the case of `O=C(N[C@@H](Cc1ccccc1)[C@H](O)CN(CC1CCCC1)S(=O)(=O)c1cccnc1)O[C@H]1CCOC1` [Compound 149, Pyridine-3-sulfonic acid cyclopentylmethyl-((2 syn,3S)-2-hydroxy-4-phenyl-3-((S)-tetrahydrofuran-3-yloxycarbonylamino)-butyl)-amide], the IC90 was 0.101 to 1 µM.
`O=C(N[C@@H](Cc1ccccc1)[C@H](O)CN(CC1CCCC1)S(=O)(=O)c1ccc(O)cc1)O[C@H]1CCOC1` [Compound 169, N-Cyclopentylmethyl-4-hydroxy-N-((2 syn,3S)-2-hydroxy-4-phenyl-3-((S)-tetrahydrofuran-3-yloxycarbonylamino)-butyl)-benzenesulfonamide] gave an IC90 of under 0.1 µM.
Compound `CC(C)CN(C[C@@H](O)[C@H](Cc1ccccc1)NC(=O)O[C@H]1CCOC1)S(=O)(=O)c1ccc(F)c(F)c1` [Compound 124] has an IC90 of 10 to 40 µM.
For `COc1ccc(S(=O)(=O)N(CC2CCCC2)C[C@@H](O)[C@H](Cc2ccccc2)NC(=O)OCc2cccnc2)cc1` [Compound 142], the IC90 was under 0.1 µM.
In the case of `CC(C)CN(C[C@@H](O)[C@H](Cc1ccccc1)NC(=O)OC(C)(C)C)S(=O)(=O)c1ccccc1` [Compound 45], the IC90 was 1 to 10 µM.
Compound `O=C(N[C@@H](Cc1ccccc1)[C@H](O)CN(CC1CCCC1)S(=O)(=O)c1ccc(O)cc1)OCc1cccnc1` [Compound 166, N-cyclopentylmethyl-4-hydroxy-N-((2 syn,3S)-2-hydroxy-4-phenyl-3-(pyridin-3-yl-methoxycarbonylamino)-butyl)-benzenesulfonamide] has an IC90 of under 0.1 µM.
`Nc1ccc(S(=O)(=O)N(CC2CCCC2)C[C@@H](O)[C@H](Cc2ccccc2)NC(=O)O[C@H]2CCOC2)c(N)c1` [Compound 173, 2,4-Diamino-N-cyclopentylmethyl-N-((2 syn,3S)-2-hydroxy-4-phenyl-3-((S)-tetrahydrofuran-3-yloxycarbonylamino)-butyl)-benzenesulfonamide] was tested, and the IC90 was under 0.1 µM.
For `CC[C@H](C)[C@H](NC(=O)OCc1ccccc1)C(=O)N[C@@H](Cc1ccccc1)[C@H](O)CN(CC(C)C)S(=O)(=O)c1ccc(F)c(NC(C)=O)c1` [Compound 187, Benzyloxycarbonyl-(L)-isoleucine-N-(5-((3-amino-(2 syn,3S)-2-hydroxy-4-phenyl-butyl)-isobutyl-sulfamoyl)-2-fluoro-phenyl)-acetamide], the IC90 was 0.101 to 1 µM.
Work on `COc1ccc(S(=O)(=O)N(CC(C)C)C[C@@H](O)[C@H](Cc2ccccc2)NC(=O)OCc2ccncc2)cc1` [Compound 163, N-((2 syn,3S)-2-Hydroxy-4-phenyl-3-(pyridin-4-yl-methoxycarbonylamino)-butyl)-N-isobutyl-4-methoxy-benzenesulfonamide] yielded an IC90 of 0.101 to 1 µM.
`CC(C)CN(C[C@@H](O)[C@H](Cc1ccccc1)NC(=O)OCc1ccccc1)S(=O)(=O)c1ccc(F)cc1` [Compound 38] gave an IC90 of 1 to 10 µM.
